Results: patent US5004756A, “Anti-cancer activity potentiator” (priority 1988, dated 1991)
Values after ≈ are worked out from the molar mass of the structure shown. Like-named read-outs stand apart in the source and are kept apart here.

Tests used:
V79/ADM [1] = assay: Anti-cancer activity potentiating action, colony formation, V79/ADM resistant cells (A-III); assay type: cell-based, Chinese hamster; conditions: for IC50: Cricetulus griseus
Procedure: (§1) The anti-cancer activity potentiating action of the malate of formula (I) was examined using Chinese hamster cells (sensitive cell line V79/S and ADM-resistant cell line V79/ADM), human hepatoma cells (sensitive cell line PLC/S and colchicin-resistant cell line PLC/Col) and mouse leukemia cells (sensitive cell line L5178Y/S) and aclarubicin-resistant cell line L5178Y/ACR).
(§2) Of these tumor cells, the sensitive cells (400 cells) and the resistant cells (600 cells) were each incubated in 10 ml of Eagle's MEM medium containing 10% bovine serum for 24 hours, and then each of the test drugs indicated in Table 6 was added. Thereafter, the incubation was carried out for 9 days. The concentration (IC50 : micrograms/ml) of the test drug required to inhibit 50% of the colony formation (proliferation) of the tumor cells was calculated.
(§3) (A) Chinese hamster V79 cells
(§4) As anti-cancer agents, there were used adriamycin (ADM), aclarubicin (ACR), actinomycin D (ACD), 5-fluorouracil (5-FU), cytarabin (Ara-C), cisplatin (CDDP), methotrexate (MTX), mitomycin C (MMC), nimustine (ACNU), mitoxantrone, etoposide ([…]), vincristine (VCR), bleomycin (BLM) and peplomycin (PEP). For the sensitive cells, the anti-cancer agents were used in combination with 10 micrograms/ml of the malate of formula (I), and for the resistant cells, the anti-cancer agents were used in combination with the malate of formula (I) 3 micrograms/ml, 5 micrograms/ml, and 10 micrograms/ ml.

L5178Y/S = assay: Anti-cancer activity potentiating action, colony formation, mouse leukemia sensitive cells (table head prints PLC/S); assay type: cell-based; conditions: head prints PLC/S (parent cells); for IC50: Mus musculus, L5178Y
Procedure: as §1, §2
(§5) Adriamycin (ADM) and aclarubicin (ACR) as anti-cancer agents were used in combination with 20 micrograms/ml of the malate of formula (I).

[2] = tested on: clinically isolated human cancer cells (lung adenocarcinoma, lung squamous cell carcinoma, osteosarcoma, ovarian carcinoma); assay: Anti-tumor activity on clinically isolated human cancer cells, morphological changes (A-I Part 2); assay type: cell-based
L5178Y/ACR = assay: Anti-cancer activity potentiating action, colony formation, aclarubicin-resistant mouse leukemia cells (table head prints PLC/ACR); assay type: cell-based; conditions: for IC50: Mus musculus, L5178Y
Procedure: as §1, §2, §5

V79/S [3] = assay: Anti-cancer activity potentiating action, colony formation, V79/S parent cells (A-III); assay type: cell-based, Chinese hamster; conditions: for IC50: Cricetulus griseus
Procedure: as §1, §2, §3, §4

V79/S [4] = assay: Colony formation (proliferation) inhibition, sensitive Chinese hamster cells (A-I Part 1); assay type: cell-based; conditions: Cricetulus griseus, 216 h
Procedure: (§6) Sensitive cell line V79/S and ADM-resistant cell line V79/ADM of the Chinese hamster were used, and sensitive cell line PLC/S and cholchicin-resistant cell line PLC/Col, as human hepatoma cells.
(§7) The sensitive cell lines (400 cells) or the resistant cell lines (600 cells) were each incubated for 24 hours in 10 ml of Eagle's MEM medium containing 10% bovine serum. Each of the drugs indicated in Table 1 below was dissolved in ethanol, and 50 microliters of the resulting solution was added to the medium. The incubation was further carried out for 9 days. The concentration of the drug which inhibits 50% of the colony formation (proliferation) of the tumor cells was calculated.
(§8) V79/S and V79/ADM were tested by using all of the drugs described above, but PLC/S and PLC/Col were tested by using only the malate of formula (I), adriamycin and peplomycin.
(§9) The concentrations (micrograms/ml) required to inhibit 50% of the proliferation of the tumor cells, expressed by IC50, are shown in Table 1.

V79/ADM [5] = assay: Colony formation (proliferation) inhibition, ADM-resistant Chinese hamster cells (A-I Part 1); assay type: cell-based; conditions: Cricetulus griseus, 216 h
Procedure: as §6, §7, §8, §9

Lewis lung cancer cells = assay: Life prolongation of BDF1 mice with Lewis lung cancer (A-II Part 2); assay type: in vivo, mouse (male BDF1)
Procedure: Male BDF1 mice having a body weight of 20±2 g (6 per group) were used, and as tumor cells, Lewis lung cancer cells were transplanted under the skin of the side abdomen of each of the mice at a rate of 10^5 cells. […] The life prolongation rate of the mice in each group was determined by the treated group/non-treated control group (T/C %).

[6] = tested on: Human stomach cancer cell line H-81; assay: Anti-cancer activity potentiating action in nude mice with human stomach cancer H-81 (A-V); assay type: in vivo, human tumor in ICR nude mice
Source text: ICR nude mice (4-5 weeks old; 7 per group) were used. Human stomach cancer cell line H-81 was used as tumor cells. Tissue pieces, 2 mm in square, were taken, and transplanted subcutaneously to the right back portion of the nude mice. […] The sequence of the drug administration was as follows: […] The administration was further repeated every five days from the day on which the administration was first carried out. The total number of administrations of each drug was four. […] The measurement was made on the days on which the drugs were administered, and four weeks after the start of drug administration.

PLC/S [7] = assay: Anti-cancer activity potentiating action, colony formation, PLC/S parent cells (A-III); assay type: cell-based, human; conditions: for IC50: Homo sapiens
Procedure: as §1, §2
(§10) As anti-cancer agents, adriamycin (ADM) and peplomycin (PEP) were used in combination with the malate of formula (I) (5 micrograms/ml).

[8] = tested on: human tumor cells (muscle fibrosarcoma HT-1080); assay: Anti-cancer activity potentiating action in nude mice with HT-1080 (A-VI); assay type: in vivo, human tumor in ICR nude mice; conditions: ADM 4 mg/kg i.v., days 5, 10, 15, 20; day 36
Procedure: ICR nude mice, 6 per group, were used, and the experiment was conducted substantially in accordance with the procedure described in A-V.
As tumor cells, human tumor cells (muscle fibrosarcoma HT-1080) were used, and 5 days after the transplantation, drug administration was started.
The administration was further performed every 5 days from the day of starting the administration, and the total number of administrations was therefore 4.
Mitomycin C (MMC) was tested by the same way as above.
Thirty-six days after the transplantation of the tumor, a tumor mass was extracted and its weight was measured. From the difference of the weight of the tumor from the non-treated control group, the tumor growth inhibition ratio (%) was calculated.

PLC/S [9] = assay: Colony formation (proliferation) inhibition, sensitive human hepatoma cells (A-I Part 1); assay type: cell-based; conditions: Homo sapiens, 216 h
Procedure: as §6, §7, §8, §9

PLC/Col [10] = assay: Colony formation (proliferation) inhibition, colchicin-resistant human hepatoma cells (A-I Part 1); assay type: cell-based; conditions: Homo sapiens, 216 h
Procedure: as §6, §7, §8, §9

PLC/Col [11] = assay: Anti-cancer activity potentiating action, colony formation, PLC/Col resistant cells (A-III); assay type: cell-based, human; conditions: for IC50: Homo sapiens
Procedure: as §1, §2, §10

B16 melanoma cells = assay: Life prolongation of BDF1 mice with B16 melanoma (A-II Part 1); assay type: in vivo, mouse (male BDF1); conditions: 0.45 mg/kg i.p., three times every 4 days
Procedure: Three to eight male BDF1 mice having a body weight of 20±3 g were used, and B16 melanoma cells were selected as tumor cells. The melanoma cells were homogenized, and the homogenate was transplanted subcutaneously to the mice in an amount of 0.5 ml/mouse. After 7 days, the malate of formula (I) in accordance with this invention and an anti-cancer agent, neocartinostatin (NCS), were intraperitoneally administered either singly or in combination three times every 4 days in a dose of 5 mg/kg and 0.45 mg/kg for each time. The life prolonging rate of the mice was determined by the treated group/non-treated control group (T/C %).

[12] = read-out: IC50, anti-cancer agent alone
[13] = read-out: IC50 in combination with compound (I)
[14] = V79/ADM, with compound (I) 10 μg/ml
[15] = alone, Table 7 lower part, read-out: IC50, anti-cancer agent alone
[16] = with compound (I) 20 μg/ml, read-out: IC50 in combination with compound (I)
[17] = V79/S, with compound (I) 10 μg/ml

CC[C@@]1(O)C[C@H](O[C@H]2C[C@H](N(C)C)[C@H](O[C@H]3C[C@H](O)[C@H](O[C@H]4CCC(=O)[C@H](C)O4)[C@H](C)O3)[C@H](C)O2)c2c(cc3c(c2O)C(=O)c2c(O)cccc2C3=O)[C@H]1C(=O)OC [ACR, aclarubicin]
IC50 (V79/ADM [1]; [12]): 0.27 µg/mL
IC50 (V79/ADM [1]; [13]): 0.024 µg/mL
Potentiation activity (V79/ADM [1]; [14]): 11.3 times
IC50 (L5178Y/S; [15]): 0.019 µg/mL
IC50 (L5178Y/S; [16]): 0.017 µg/mL
Potentiation activity (L5178Y/S; with compound (I) 20 μg/ml): 1.0 times
Efficacy ratio (rated significant by Fisher's test) ([2]; 0.2 μg/ml): 2/8
IC50 (L5178Y/ACR; [15]): 0.07 µg/mL
IC50 (L5178Y/ACR; [16]): 0.043 µg/mL
Potentiation activity (L5178Y/ACR; with compound (I) 20 μg/ml): 1.8 times
IC50 (V79/S [3]; [12]): 0.037 µg/mL
IC50 (V79/S [3]; [13]): 0.027 µg/mL
Potentiation activity (V79/S [3]; [17]): 1.37 times
IC50 (V79/S [4]): 0.037 µg/mL (≈ 0.0456 µM)
IC50 (V79/ADM [5]): 0.27 µg/mL (≈ 0.333 µM)

COc1cccc2c1C(=O)c1c(O)c3c(c(O)c1C2=O)C[C@@](O)(C(=O)CO)C[C@@H]3O[C@H]1C[C@H](N)[C@H](O)[C@H](C)O1 [ADM, adriamycin]
T/C (life prolongation rate) (Lewis lung cancer cells; 1.25 mg/kg i.v.): 218%
T/C (life prolongation rate) (Lewis lung cancer cells; 2.5 mg/kg i.v. (lipid emulsion calculated as malate)): 173%
T/C (life prolongation rate) (Lewis lung cancer cells; 5.0 mg/kg i.v. (lipid emulsion calculated as malate)): 241%
IC50 (V79/ADM [1]; V79/ADM, alone, Table 6, read-out: IC50, anti-cancer agent alone): 8.8 µg/mL
IC50 (V79/ADM [1]; V79/ADM, with compound (I) 10 μg/ml, read-out: IC50 in combination with compound (I)): 0.25 µg/mL
Potentiation activity (V79/ADM [1]; [14]): 35.2 times
IC50 (L5178Y/S; [15]): 0.048 µg/mL
IC50 (L5178Y/S; [16]): 0.016 µg/mL
Potentiation activity (L5178Y/S; with compound (I) 20 μg/ml): 3.0 times
Efficacy ratio (rated significant by Fisher's test) ([2]; 0.3 μg/ml): 3/8
Tumor growth inhibition rate ([6]; 2 mg/kg i.v., 4 weeks later, **p < 0.1 vs control): 45.2%
Tumor growth inhibition rate ([6]; 2 mg/kg i.v., 5 days later): 16.5%
Tumor growth inhibition rate ([6]; 2 mg/kg i.v., 10 days later): 45.7%
Tumor growth inhibition rate ([6]; 2 mg/kg i.v., 15 days later): 49.5%
Tumor growth inhibition rate ([6]; ADM 5 mg/kg i.v. singly, 4 weeks later, *p < 0.5 vs control): 59.7%
IC50 (PLC/S [7]; [12]): 0.005 µg/mL
IC50 (PLC/S [7]; [13]): 0.0053 µg/mL
Potentiation activity (PLC/S [7]; PLC/S, with compound (I) 5 μg/ml): 1.0 times
Tumor growth inhibition ratio [8]: 96.1%
Tumor weight [8]: 0.14 ± 0.32
IC50 (L5178Y/ACR; [15]): 0.06 µg/mL
IC50 (L5178Y/ACR; [16]): 0.18 µg/mL
Potentiation activity (L5178Y/ACR; with compound (I) 20 μg/ml): 3.7 times
IC50 (V79/S [3]; V79/S, alone, Table 6, read-out: IC50, anti-cancer agent alone): 0.057 µg/mL
IC50 (V79/S [3]; V79/S, with compound (I) 10 μg/ml, read-out: IC50 in combination with compound (I)): 0.008 µg/mL
Potentiation activity (V79/S [3]; [17]): 7.1 times
IC50 (PLC/S [9]): 0.005 µg/mL (≈ 0.0092 µM)
IC50 (V79/S [4]): 0.057 µg/mL (≈ 0.105 µM)
IC50 (PLC/Col [10]): 0.08 µg/mL (≈ 0.147 µM)
IC50 (PLC/Col [11]; [12]): 0.08 µg/mL
IC50 (PLC/Col [11]; [13]): 0.027 µg/mL
Potentiation activity (PLC/Col [11]; PLC/Col, with compound (I) 5 μg/ml): 3.0 times
IC50 (V79/ADM [5]): 8.8 µg/mL (≈ 16.2 µM)

B1: neocartinostatin (protein, UniProt P0A3R9 35-147, looked up)
Neocarzinostatin: AAPTATVTPSSGLSDGTVVKVAGAGLQAGTAYDVGQCAWVDTGVLACNPADFSSVTADANGSASTSLTVRRSFEGFLFDGTRWGTVDCTTAACQVGLSDAAGNGPEGVAISFN
T/C (life prolonging rate at M.S.T.) (B16 melanoma cells): 135%
